System: RSV B Washington strain
Assay: RSV B-induced CPE in HEp2 cells
Type: cell-based
Conditions: human respiratory syncytial virus
Protocol: Assessment of RSV Induced CPE in HEp2 Cells
HEp2 cells were seeded (10^3/well/50 μL) in 384-well plates (Catalogue number 353962, BD Falcon, Oxford, UK) in […] containing 2 mM L-glutamine and 1 mM sodium pyruvate one day before infection. RSV A2 strain (#0709161v, NCPV, Public Health England, Wiltshire) or RSV B Washington strain (VR-1580, ATCC, Manassas, Va. 20108) virus solutions were prepared in serum free-DMEM with 2 mM L-glutamine and 1 mM sodium pyruvate, and then added (50 μL/well) to achieve a final virus concentration of 1 MOI. Simultaneously Compound (I) (0.5 μL DMSO solution) was added to 100 μL of HEp2 cell culture with virus solution to provide a final DMSO solution of 0.5%. Plates were incubated (37° C./5% CO2) for 5 days for studies using RSV A2 strain or 6 days for those using RSV B strain, and then resazurin sodium salt (5 μL of 0.03% solution; Sigma-Aldrich, Dorset, UK) was added to each well and the plate incubated for a further 6 hr (37° C./5% CO2). The fluorescence of each well [545 nm (excitation)/590 nm (emission)] was determined using a multi-scanner (Clariostar: BMG, Buckinghamshire, UK). The percentage inhibition for each well was calculated and the IC50, IC75 and IC90 values were calculated from the concentration-response curve generated for Compound (I).

SMILES: Cc1cnc(N2CC3(CCOCC3)C2)c(C(=O)Nc2ccc(C(=O)N3CCc4cc(C(=O)Nc5c(C)cccc5F)sc4-c4ccccc43)cc2)c1 [Compound (I), N-(2-fluoro-6-methylphenyl)-6-(4-(5-methyl-2-(7-oxa-2-azaspiro[3.5]nonan-2-yl)nicotinamido)benzoyl)-5,6-dihydro-4H-benzo[b]thieno[2,3-d]azepine-2-carboxamide]
- IC50 (HEp-2, 144 h, 1 MOI, 6 days): 10.2 nM
- inhibition at 1 µg/mL (HEp-2, at 1 μg/mL): 72%

Source: patent publication US10035810B2, “5,6-dihydro-4H-benzo[b]thieno-[2,3-d]azepine derivative” (PULMOCIDE LIMITED, priority 2014, dated 2018)
